{
  "source": "patent US20110082212A1",
  "about": "“MULTI-S[…] ANDROGEN RECEPTOR MODULATORS AND METHODS OF USE THEREOF” (priority 2002, published 2011)",
  "key": {"androgen receptor": {"biological_target": "T1, androgen receptor (Rattus norvegicus, UniProt P15207)", "T1 construct": "from tissue; host or cells: Rat ventral prostate cytosol", "T1 sequence (P15207 1-902)": "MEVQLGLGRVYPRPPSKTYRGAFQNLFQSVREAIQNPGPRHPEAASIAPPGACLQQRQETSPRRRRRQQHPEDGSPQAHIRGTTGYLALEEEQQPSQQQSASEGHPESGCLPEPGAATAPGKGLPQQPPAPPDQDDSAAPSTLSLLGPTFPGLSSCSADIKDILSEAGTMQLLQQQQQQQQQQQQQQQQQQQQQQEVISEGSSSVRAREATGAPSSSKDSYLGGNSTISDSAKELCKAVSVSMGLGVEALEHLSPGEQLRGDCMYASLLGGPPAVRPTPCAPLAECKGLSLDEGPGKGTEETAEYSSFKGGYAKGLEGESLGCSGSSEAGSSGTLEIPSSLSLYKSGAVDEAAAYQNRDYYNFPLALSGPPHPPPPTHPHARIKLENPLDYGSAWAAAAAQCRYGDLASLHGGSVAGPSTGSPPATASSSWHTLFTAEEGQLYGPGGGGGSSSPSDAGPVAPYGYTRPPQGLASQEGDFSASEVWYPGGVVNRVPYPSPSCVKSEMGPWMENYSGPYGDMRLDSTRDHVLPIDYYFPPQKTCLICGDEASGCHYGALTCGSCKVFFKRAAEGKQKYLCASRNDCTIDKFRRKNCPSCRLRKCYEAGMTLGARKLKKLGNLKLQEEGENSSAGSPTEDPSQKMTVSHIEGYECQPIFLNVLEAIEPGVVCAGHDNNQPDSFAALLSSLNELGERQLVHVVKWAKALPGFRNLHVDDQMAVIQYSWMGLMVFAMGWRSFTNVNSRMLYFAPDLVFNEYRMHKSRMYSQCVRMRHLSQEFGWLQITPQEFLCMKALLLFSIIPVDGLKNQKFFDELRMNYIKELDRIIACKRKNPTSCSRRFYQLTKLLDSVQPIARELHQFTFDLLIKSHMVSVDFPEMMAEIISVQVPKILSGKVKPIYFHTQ", "test": "Androgen receptor binding affinities", "conditions": "for RBA: relative binding affinity, androgen receptor"}, "[1]": {"test_system": "intact male rats (ventral prostate, seminal vesicles, levator ani muscle)", "test": "Pharmacologic activity of TP and compound 7 in intact male rats (organ weights)", "assay_type": "in vivo", "conditions": "0.5 mg/day, 14 days", "method": "(§1) Forty-five male SD rats, weighing approximately 200 g, were randomly divided into nine groups with five rats per group. One day before treatment, groups 1 through 8 were castrated via a scrotal incision under anesthesia. Group 9 served as an intact vehicle control. Compound 7 was dissolved in a vehicle containing DMSO (5%, v/v) in PEG 300. Groups 1 through 7 received daily subcutaneous injections of compound 7 at a dose rate of 0.05, 0.1, 0.3, 0.5, 0.75, 1, and 3 mg/day, respectively. Groups 8 and 9 received vehicle. […] This dose rate was chosen based on the results from the aforementioned study in castrated rats. Rats were sacrificed after 14 days treatment. Serum samples were collected and stored at −80° C. The ventral prostate, seminal vesicles, and levator ani muscle were removed, cleared of extraneous tissue, and weighed. All organ weights were normalized to body weight and compared. The weights of the prostate and seminal vesicles were used to evaluate androgenic activity, while the levator ani muscle weight was used as a measurement of anabolic activity."}, "[2]": {"test_system": "castrated male rats (ventral prostate, seminal vesicles, levator ani muscle)", "test": "Androgenic and anabolic activity of compound 7 in castrated male rats (organ weights, dose response)", "assay_type": "in vivo, SD rats", "conditions": "14 days", "method": "as §1"}, "LH and FSH levels": {"test_system": "LH and FSH levels", "test": "Serum LH and FSH levels in castrated rats treated with compound 7 (RIA)", "assay_type": "in vivo, SD rats", "method": "as §1"}, "serum testosterone": {"test_system": "serum testosterone", "test": "Serum testosterone concentrations in intact male rats (EIA)", "assay_type": "in vivo", "conditions": "0.5 mg/day, 14 days, individual animals (n=5/group), detection limit 0.04 ng/mL, intact rats 4.47±1.66", "method": "as §1"}, "[3]": {"test_system": "castrated male rats (prostate, seminal vesicles, levator ani muscle)", "test": "Androgenic and anabolic activity of compounds 1 and 2 in castrated rat model (organ weights)", "assay_type": "in vivo, Sprague-Dawley rats", "conditions": "14 days; for Seminal Vesicles weight: intact 101 ± 26.8, castrated 8.1 ± 1.8; for Levator Ani Muscle weight: intact 102 ± 8.1, castrated 40.9 ± 9.4; for Prostate weight: intact 100 ± 14.3, castrated 6.2 ± 2.5", "excerpt": "Intact Controls (not castrated, untreated) and Castrated Controls (castrated, untreated) were used as the control groups."}, "[4]": {"conditions": "daily s.c., nonlinear regression of dose-response"}},
  "note": "“And” between values parts separate entries of the source, which are not always exact repeats. Equal values may be shown once.",
  "data": [
    {"smiles": "C[C@](O)(COc1ccc(F)c(F)c1F)C(=O)Nc1ccc([N+](=O)[O-])c(C(F)(F)F)c1", "note": "[Compound 3]", "values": [
      {"measurement": "Ki", "setting": "androgen receptor", "result": "11.3 ± 1.1", "unit": "nM"},
      {"measurement": "RBA", "setting": "androgen receptor", "result": 3.1, "unit": "%"}
    ]},
    {"smiles": "CCC(=O)O[C@H]1CC[C@H]2[C@@H]3CCC4=CC(=O)CC[C@]4(C)[C@H]3CC[C@]12C", "note": "[TP, testosterone propionate, reference compound]", "values": [
      {"measurement": "effect on growth of prostate, seminal vesicles and levator ani muscle", "setting": "[1]", "result": "stimulated growth in all three organs"}
    ]},
    {"smiles": "C[C@](O)(COc1ccccc1F)C(=O)Nc1ccc([N+](=O)[O-])c(C(F)(F)F)c1", "note": "[Compound 10]", "values": [
      {"measurement": "Ki", "setting": "androgen receptor", "result": "3.4 ± 0.34", "unit": "nM"},
      {"measurement": "RBA", "setting": "androgen receptor", "result": 5.9, "unit": "%"}
    ]},
    {"smiles": "C[C@](O)(COc1ccc(F)c(Cl)c1)C(=O)Nc1ccc([N+](=O)[O-])c(C(F)(F)F)c1", "note": "[Compound 8]", "values": [
      {"measurement": "Ki", "setting": "androgen receptor", "result": "10.3 ± 2", "unit": "nM"},
      {"measurement": "RBA", "setting": "androgen receptor", "result": 4.3, "unit": "%"}
    ]},
    {"smiles": "C[C@](O)(COc1ccc(Cl)c(Cl)c1)C(=O)Nc1ccc([N+](=O)[O-])c(C(F)(F)F)c1", "note": "[Compound 9]", "values": [
      {"measurement": "Ki", "setting": "androgen receptor", "result": "1 ± 0.09", "unit": "nM"},
      {"measurement": "RBA", "setting": "androgen receptor", "result": 20.2, "unit": "%"}
    ]},
    {"smiles": "C[C@](O)(COc1ccc(Cl)c(F)c1)C(=O)Nc1ccc([N+](=O)[O-])c(C(F)(F)F)c1", "note": "[Compound 7]", "values": [
      {"measurement": "Ki", "setting": "androgen receptor", "result": "4.9 ± 0.3", "unit": "nM"},
      {"measurement": "RBA", "setting": "androgen receptor", "result": 9.1, "unit": "%"},
      {"measurement": "organ weights (ventral prostate, seminal vesicles, levator ani muscle) restored relative to intact controls", "setting": "[2]; 3 mg/day s.c.", "result": "up to 130%"},
      {"measurement": "ED50 in levator ani muscle", "setting": "[2]; [4]", "result": "0.17 ± 0.04", "unit": "mg/day"},
      {"measurement": "ED50 in prostate", "setting": "[2]; [4]", "result": "0.77 ± 0.06", "unit": "mg/day"},
      {"measurement": "ED50 in seminal vesicle", "setting": "[2]; [4]", "result": "0.88 ± 0.14", "unit": "mg/day"},
      {"measurement": "lowest dose reversing FSH levels back to physiologic levels", "setting": "LH and FSH levels", "result": 0.5, "unit": "mg/day"},
      {"measurement": "lowest dose reversing LH levels back to physiologic levels", "setting": "LH and FSH levels", "result": 0.3, "unit": "mg/day"},
      {"measurement": "FSH", "setting": "LH and FSH levels; 0.1 mg/day, intact control 11.2 ± 2.0, castrated control 63.4 ± 5.0", "result": "53.0 ± 5.1 ^I ng/mL"},
      {"measurement": "LH", "setting": "LH and FSH levels; 0.1 mg/day, intact control <0.2, castrated control 8.4 ± 2.5", "result": "3.6 ± 0.8 ^I ng/mL"},
      {"measurement": "FSH", "setting": "LH and FSH levels; 0.3 mg/day", "result": "26.6 ± 8.9 ^I ng/mL"},
      {"measurement": "LH", "setting": "LH and FSH levels; 0.3 mg/day", "result": "<0.2 ^C ng/mL"},
      {"measurement": "FSH", "setting": "LH and FSH levels; 0.5 mg/day", "result": "12.4 ± 1.1 ^C ng/mL"},
      {"measurement": "LH", "setting": "LH and FSH levels; 0.5 mg/day", "result": "<0.2 ^C ng/mL"},
      {"measurement": "FSH", "setting": "LH and FSH levels; 0.75 mg/day", "result": "12.8 ± 1.6 ^C ng/mL"},
      {"measurement": "LH", "setting": "LH and FSH levels; 0.75 mg/day", "result": "<0.2 ^C ng/mL"},
      {"measurement": "serum testosterone concentration", "setting": "serum testosterone", "result": "< 0.04 ng/mL and 0.11 ng/mL and 0.46 ng/mL"},
      {"measurement": "effect on levator ani muscle weight", "setting": "[1]", "result": "maintained levator ani muscle weight"},
      {"measurement": "effect on size of prostate and seminal vesicles", "setting": "[1]", "result": "reduced the size of the prostate and seminal vesicles"}
    ]},
    {"smiles": "C[C@](O)(COc1c(F)cc(F)cc1F)C(=O)Nc1ccc([N+](=O)[O-])c(C(F)(F)F)c1", "note": "[Compound 11]", "values": [
      {"measurement": "Ki", "setting": "androgen receptor", "result": "10.3 ± 2", "unit": "nM"}
    ]},
    {"smiles": "C[C@](O)(COc1cc(F)cc(F)c1F)C(=O)Nc1ccc([N+](=O)[O-])c(C(F)(F)F)c1", "note": "[Compound 6]", "values": [
      {"measurement": "Ki", "setting": "androgen receptor", "result": "9.1 ± 0.6", "unit": "nM"},
      {"measurement": "RBA", "setting": "androgen receptor", "result": 3.4, "unit": "%"}
    ]},
    {"smiles": "C[C@](O)(COc1ccc(F)cc1F)C(=O)Nc1ccc([N+](=O)[O-])c(C(F)(F)F)c1", "note": "[Compound 5]", "values": [
      {"measurement": "Ki", "setting": "androgen receptor", "result": "3.2 ± 0.3", "unit": "nM"},
      {"measurement": "RBA", "setting": "androgen receptor", "result": 10.9, "unit": "%"}
    ]},
    {"smiles": "C[C@](O)(COc1ccc(F)c(F)c1)C(=O)Nc1ccc([N+](=O)[O-])c(C(F)(F)F)c1", "note": "[Compound 1]", "values": [
      {"measurement": "RBA", "setting": "androgen receptor", "result": 17.6, "unit": "%"},
      {"measurement": "levator ani muscle weight compared with intact animals", "setting": "[3]; 1 mg/d", "result": "maintain the levator ani muscle weight of castrated animals in the same level as that of intact animals"},
      {"measurement": "Seminal Vesicles weight", "setting": "[3]; 1 mg/day via osmotic pump", "result": "30.9 ± 5.7"},
      {"measurement": "Levator Ani Muscle weight", "setting": "[3]; 1 mg/day via osmotic pump", "result": "122.5 ± 10.4"},
      {"measurement": "Prostate weight", "setting": "[3]; 1 mg/day via osmotic pump, normalized to body weight", "result": "40.3 ± 10.0"},
      {"measurement": "Prostate weight", "setting": "[3]; 1 mg/day, daily injection", "result": "33.1 ± 8.5"},
      {"measurement": "Seminal Vesicles weight", "setting": "[3]; 1 mg/day, daily injection", "result": "23.6 ± 8.8"},
      {"measurement": "Levator Ani Muscle weight", "setting": "[3]; 1 mg/day, daily injection", "result": "112.8 ± 9.4"}
    ]},
    {"smiles": "C[C@](O)(COc1c(F)c(F)c(F)c(F)c1F)C(=O)Nc1ccc([N+](=O)[O-])c(C(F)(F)F)c1", "note": "[Compound 2]", "values": [
      {"measurement": "RBA", "setting": "androgen receptor", "result": 13.3, "unit": "%"},
      {"measurement": "Prostate weight", "setting": "[3]; 1 mg/day, daily injection", "result": "7.2 ± 1.4"},
      {"measurement": "Seminal Vesicles weight", "setting": "[3]; 1 mg/day, daily injection", "result": "7.2 ± 0.9"},
      {"measurement": "Levator Ani Muscle weight", "setting": "[3]; 1 mg/day, daily injection", "result": "55.83 ± 2.84"}
    ]}
  ]
}
